The record followed here is patent publication US20130053337A1, “GUANIDINYLATED AMINOGLYCOSIDE-LIPID CONJUGATES” (UNIVERSITY OF MANITOBA, priority 2010, published 2013).

The structures appear in SMILES notation. Values after ≈ are worked out from the molar mass of the structure shown. Where two headings read alike, the source gives them in different places.

For data set [1], the system named is MRSE CAN-ICU 61589. Nature of the data set: MIC, broth macrodilution (CLSI). It counts as cell-based, methicillin-resistant Staphylococcus epidermidis. Here is the method: (§1) All experiments were performed in duplicate.
(§2) Bacterial isolates studied included both reference strains obtained from the American Type Culture Collection (ATCC) as well as clinical strains obtained from the CAN-ICU study which was a national surveillance study assessing the prevalence of antimicrobial resistant pathogens in Canadian intensive care units (Zhanel et al., 2008). Isolates were kept frozen in skim milk at −80° C. until minimum inhibitory concentration (MIC) testing was carried out. Following two subcultures from frozen stock, the in vitro activities of peptides were determined by macrobroth dilution in accordance with the Clinical and Laboratory Standards Institute (CLSI) 2006 guidelines (Zhanel et al., 2008). Stock solutions of peptides were prepared and dilutions made as described by CLSI. Test tubes contained doubling antimicrobial dilutions of cation adjusted Mueller-Hinton broth and inoculated to achieve a final concentration of approximately 5×10^5 cfu/ml then incubated in ambient air for 24 hours prior to reading. Colony counts were performed periodically to confirm inocula. Quality control was regularly performed using ATCC QC organisms.

The subject of data set [2] is S. aureus ATCC 29213. Nature of the data set: MIC, broth macrodilution (CLSI). In kind it is cell-based, Staphylococcus aureus. Particulars: S. aureus ATCC29213. Here is the method:
as §1, §2

The subject of data set [3] is MRSA ATCC 33592. Nature of the data set: MIC, broth macrodilution (CLSI). In kind it is cell-based, methicillin-resistant Staphylococcus aureus. As to conditions: MRSA ATCC33592. On the procedure:
as §1, §2

The subject of data set [4] is S. epidermidis ATCC 14990. Nature of the data set: MIC, broth macrodilution (CLSI). It counts as cell-based, Staphylococcus epidermidis. Particulars: S. epidermidis ATCC14990. On the procedure: as §1, §2
The test system of data set [5] is P. aeruginosa (gentamicin-resistant) CAN-ICU 62308. Put plainly: MIC, broth macrodilution (CLSI). In kind it is cell-based. Particulars: P. aeruginosa CAN-ICU 62308. Here is the method:
as §1, §2

In data set [6] the test system is E. coli ATCC 25922. Nature of the data set: MIC, broth macrodilution (CLSI). It counts as cell-based. Particulars: E. coli ATCC25922. On the procedure:
as §1, §2

The test system of data set [7] is P. aeruginosa ATCC 27853. Put plainly: MIC, broth macrodilution (CLSI). It counts as cell-based. As to conditions: P. aeruginosa ATCC27853. On the procedure:
as §1, §2

For data set [8], the system named is E. coli (amikacin MIC 32 mg/L) CAN-ICU 63074. Put plainly: MIC, broth macrodilution (CLSI). It counts as cell-based. As to conditions: E. coli CAN-ICU 63074. On the procedure:
as §1, §2

In data set [9] the test system is E. coli (gentamicin-resistant) CAN-ICU 61714. Put plainly: MIC, broth macrodilution (CLSI). It counts as cell-based. As to conditions: E. coli CAN-ICU 61714. On the procedure: as §1, §2
Data set [10] has as its system S. pneumoniae ATCC 49619. Put plainly: MIC, broth macrodilution (CLSI), broth with 5% laked horse blood. It counts as cell-based, Streptococcus pneumoniae. As to conditions: S. pneumoniae ATCC49619. Here is the method: as §1, §2
Data set [11] deals with sheep red blood cell (erythrocytes). Nature of the data set: Hemolytic assay (in vitro toxicity). Here is the method:
Antibacterial activity against Gram-positive and Gram-negative microorganisms was tested via broth macrodilution tests using CLSI methodology (Zhanel et al., 2008). Stock solutions of cationic lipids in water were brought to a concentration of 512 mg/L. Organisms were subcultured and isolated on blood agar, suspended in 3 mL of Mueller-Hinton broth at the turbidity of a […], and diluted to approximately 10^5 cfu/mL before introduction into tubes containing serially diluted lipopeptide antibiotic in Mueller-Hinton broth. Activity testing against S. pneumoniae used broth supplemented with laked horse blood to give 5% horse blood in experimental tubes. Turbidity of lipopeptide solution in broth required creation of control tubes lacking organisms serving as turbidity controls. All tubes were incubated overnight for 16-20 h at 37° C. […] All experiments were performed in duplicate. In-vitro toxicity was determined using a sheep red blood cell hemolytic assay as previously described (Dathe et al., 1996).
In vitro toxicity was determined using a sheep red blood cell (erythrocytes) hemolytic assay (Dathe et al., 1996). […] Erythrocytes were washed and resuspended in Tris buffered saline. The cell suspension was combined with varying concentrations (low to very high) of test and control antimicrobials (e.g., aminoglycosides and APTCs). The samples were centrifuged and the absorbance of the supernatants measured at 540 nm. Tris buffered saline and Triton X were used as negative and positive controls, respectively. The toxicity was assessed by percent hemolysis.

Data set [12] deals with E. faecium ATCC 27270. Nature of the data set: MIC, broth macrodilution (CLSI). Particulars: E. facium ATCC27270. In kind it is cell-based, Enterococcus faecium. On the procedure:
as §1, §2

Regarding `CCCCCCCCCCCC(=O)NC[C@H]1O[C@@H](O[C@@H]2[C@@H](O)[C@H](N)C[C@H](N)[C@H]2O[C@H]2O[C@H](CN)[C@@H](O)[C@H](O)[C@H]2N)[C@H](O)[C@@H]1O[C@H]1O[C@@H](CN)[C@@H](O)[C@H](O)[C@H]1N.O=C(O)C(F)(F)F.O=C(O)C(F)(F)F.O=C(O)C(F)(F)F.O=C(O)C(F)(F)F.O=C(O)C(F)(F)F.O=C(O)C(F)(F)F` [Compound 2], the MIC in data set [1] was 8 µg/mL; in data set [2], 32 µg/mL; in data set [3], over 256 µg/mL; in data set [4], 4 µg/mL; in [5], 256 µg/mL; in [6], 64 µg/mL. Also, the MIC amounted to 256 µg/mL in [7], 128 µg/mL in [8], 64 µg/mL in data set [9] and 128 µg/mL in data set [10].

Regarding `CCCCCCCCCCCCCCCC(=O)NC[C@H]1O[C@@H](O[C@@H]2[C@@H](O)[C@H](N)C[C@H](N)[C@H]2O[C@H]2O[C@H](CN)[C@@H](O)[C@H](O)[C@H]2N)[C@H](O)[C@@H]1O[C@H]1O[C@@H](CN)[C@@H](O)[C@H](O)[C@H]1N.O=C(O)C(F)(F)F.O=C(O)C(F)(F)F.O=C(O)C(F)(F)F.O=C(O)C(F)(F)F.O=C(O)C(F)(F)F.O=C(O)C(F)(F)F` [Compound 3], the MIC in data set [1] came out at 2 µg/mL; in data set [2] it was 4 µg/mL; in data set [3] it was 8 µg/mL; in [4], 2 µg/mL; in data set [5], 128 µg/mL; in data set [6], 32 µg/mL. In addition, the minimal inhibitory concentration (MIC) turned out to be 128 µg/mL in data set [7], 64 µg/mL in [9] and 64 µg/mL in [10]. Besides, the “hemolytic activity at 100 mg/L” value in data set [11] is given as 56%.

On to `CCCCCCCCCCCCCCCCCCCC(=O)NC[C@H]1O[C@@H](O[C@@H]2[C@@H](O)[C@H](N)C[C@H](N)[C@H]2O[C@H]2O[C@H](CN)[C@@H](O)[C@H](O)[C@H]2N)[C@H](O)[C@@H]1O[C@H]1O[C@@H](CN)[C@@H](O)[C@H](O)[C@H]1N.O=C(O)C(F)(F)F.O=C(O)C(F)(F)F.O=C(O)C(F)(F)F.O=C(O)C(F)(F)F.O=C(O)C(F)(F)F.O=C(O)C(F)(F)F` [Compound 4], for which the minimum inhibitory concentration (MIC) amounted to 4 µg/mL in data set [1]; 8 µg/mL in data set [2]; 8 µg/mL in data set [3]; 4 µg/mL in data set [4]; 64 µg/mL in [5]; 128 µg/mL in data set [6]. Also, the minimal inhibitory concentration (MIC) in [7] was determined as 128 µg/mL; in data set [8], 64 µg/mL; in data set [9] it was 128 µg/mL; in [10] it was 64 µg/mL. In addition, the “hemolytic activity at 100 mg/L” value in [11] worked out at 82%.

As for `CCCCC/C=C\C/C=C\CCCCCCCC(=O)NC[C@H]1O[C@@H](O[C@@H]2[C@@H](O)[C@H](N)C[C@H](N)[C@H]2O[C@H]2O[C@H](CN)[C@@H](O)[C@H](O)[C@H]2N)[C@H](O)[C@@H]1O[C@H]1O[C@@H](CN)[C@@H](O)[C@H](O)[C@H]1N.O=C(O)C(F)(F)F.O=C(O)C(F)(F)F.O=C(O)C(F)(F)F.O=C(O)C(F)(F)F.O=C(O)C(F)(F)F.O=C(O)C(F)(F)F` [Compound 5], the minimum inhibitory concentration (MIC) stood at 4 µg/mL in data set [1]; 16 µg/mL in data set [2]; 32 µg/mL in data set [3]; 4 µg/mL in data set [4]; 128 µg/mL in [5]; 128 µg/mL in data set [6]. Also, the MIC is 256 µg/mL in [7], 128 µg/mL in [8], 64 µg/mL in [9] and 128 µg/mL in data set [10].

As to `NC[C@@H]1O[C@H](O[C@H]2[C@@H](O)[C@H](O[C@@H]3[C@@H](O)[C@H](N)C[C@H](N)[C@H]3O[C@H]3O[C@H](CN)[C@@H](O)[C@H](O)[C@H]3N)O[C@@H]2CNC(=O)CCCc2ccc3ccc4cccc5ccc2c3c45)[C@H](N)[C@@H](O)[C@@H]1O.O=C(O)C(F)(F)F.O=C(O)C(F)(F)F.O=C(O)C(F)(F)F.O=C(O)C(F)(F)F.O=C(O)C(F)(F)F.O=C(O)C(F)(F)F` [Compound 6], the minimal inhibitory concentration (MIC) in data set [1] was 64 µg/mL; in [2], 16 µg/mL; in [3], 256 µg/mL; in [4] it was 2 µg/mL; in [5] it was 256 µg/mL; in data set [6], 32 µg/mL. In addition, the MIC in data set [7] is over 512 µg/mL; in [8], 64 µg/mL; in [9] it was 64 µg/mL; in data set [10] it was over 512 µg/mL.

In the case of `C[C@H](CCC(=O)NC[C@H]1O[C@@H](O[C@@H]2[C@@H](O)[C@H](N)C[C@H](N)[C@H]2O[C@H]2O[C@H](CN)[C@@H](O)[C@H](O)[C@H]2N)[C@H](O)[C@@H]1O[C@H]1O[C@@H](CN)[C@@H](O)[C@H](O)[C@H]1N)[C@H]1CC[C@H]2[C@@H]3[C@H](O)C[C@@H]4C[C@H](O)CC[C@]4(C)[C@H]3C[C@H](O)[C@]12C.O=C(O)C(F)(F)F.O=C(O)C(F)(F)F.O=C(O)C(F)(F)F.O=C(O)C(F)(F)F.O=C(O)C(F)(F)F.O=C(O)C(F)(F)F` [Compound 7], the minimum inhibitory concentration (MIC) worked out at 16 µg/mL in [1]; 16 µg/mL in data set [2]; 128 µg/mL in data set [3]; 8 µg/mL in data set [4]; 128 µg/mL in data set [5]; 32 µg/mL in data set [6]. The MIC was over 256 µg/mL in data set [7], 64 µg/mL in [8], 64 µg/mL in data set [9] and over 256 µg/mL in data set [10].

Regarding `CCCCCC(=O)NCC1OC(OC2C(O)C(NC(=N)N)CC(NC(=N)N)C2OC2OC(CNC(=N)N)C(O)C(O)C2NC(=N)N)C(O)C1OC1OC(CNC(=N)N)C(O)C(O)C1NC(=N)N.O=C(O)C(F)(F)F.O=C(O)C(F)(F)F.O=C(O)C(F)(F)F.O=C(O)C(F)(F)F.O=C(O)C(F)(F)F.O=C(O)C(F)(F)F` (stereo not shown) [Compound 8, 1,3,2′,6′,2′″,6′″-Hexaammonium-guanidinyl-5″-deoxy-5″-N-(hexanoyl)-neomycin hexakis(trifluoroacetate)], the MIC in data set [1] was 64 µg/mL; in data set [2] it was 128 µg/mL; in data set [4], 64 µg/mL; in data set [12], 256 µg/mL; in data set [6], 128 µg/mL; in data set [10] it was over 128 µg/mL.

As for `CC(C)c1cc(C(C)C)c(S(=O)(=O)OCC2OC(OC3C(NC(=O)OC(C)(C)C)CC(NC(=O)OC(C)(C)C)C(OC4OC(CNC(=O)OC(C)(C)C)C(O)C(O)C4O)C3O)C(O)C(NC(=O)OC(C)(C)C)C2O)c(C(C)C)c1` (stereo not shown) [Compound 17, 6″-(2,4,6-Triisopropylbenzenesulfonyl)-1,3,6′,3″-tetra-N-(tert-butoxycarbonyl)kanamycin A], in data set [11], the “hemolytic activity compared to polyamine analogs 3 and 15” value is “reduced hemolytic activity”.

Regarding `NC[C@H]1O[C@H](O[C@H]2[C@H](O)[C@@H](O[C@H]3O[C@H](CO)[C@@H](O)[C@H](N)[C@H]3O)[C@H](N)C[C@@H]2N)[C@H](O)[C@@H](O)[C@@H]1O` [Kanamycin A, reference compound], the MIC in [1] is 128 µg/mL (≈ 264 µM); in data set [2], 4 µg/mL (≈ 8.26 µM); in data set [3], over 512 µg/mL; in [4], 2 µg/mL (≈ 4.13 µM); in [5], over 512 µg/mL; in [6] it was 8 µg/mL (≈ 16.5 µM). For the same compound, the MIC in data set [7] was over 512 µg/mL; in data set [8], 32 µg/mL (≈ 66 µM); in [9], 16 µg/mL (≈ 33 µM); in [10], 8 µg/mL (≈ 16.5 µM). Also, the “hemolytic activity at 100 mg/L” value in data set [11] (100 mg/L, sheep erythrocytes, percent hemolysis) was under 0.4%.
